What was measured:
[1] = target: T1, Solute carrier organic anion transporter family member 1A4 (Rattus norvegicus, UniProt O35913); test: TP_TRANSPORTER: Western in vivo SD rat, liver; format: functional, organism-based, Sprague-Dawley
T1 sequence (O35913 whole entry): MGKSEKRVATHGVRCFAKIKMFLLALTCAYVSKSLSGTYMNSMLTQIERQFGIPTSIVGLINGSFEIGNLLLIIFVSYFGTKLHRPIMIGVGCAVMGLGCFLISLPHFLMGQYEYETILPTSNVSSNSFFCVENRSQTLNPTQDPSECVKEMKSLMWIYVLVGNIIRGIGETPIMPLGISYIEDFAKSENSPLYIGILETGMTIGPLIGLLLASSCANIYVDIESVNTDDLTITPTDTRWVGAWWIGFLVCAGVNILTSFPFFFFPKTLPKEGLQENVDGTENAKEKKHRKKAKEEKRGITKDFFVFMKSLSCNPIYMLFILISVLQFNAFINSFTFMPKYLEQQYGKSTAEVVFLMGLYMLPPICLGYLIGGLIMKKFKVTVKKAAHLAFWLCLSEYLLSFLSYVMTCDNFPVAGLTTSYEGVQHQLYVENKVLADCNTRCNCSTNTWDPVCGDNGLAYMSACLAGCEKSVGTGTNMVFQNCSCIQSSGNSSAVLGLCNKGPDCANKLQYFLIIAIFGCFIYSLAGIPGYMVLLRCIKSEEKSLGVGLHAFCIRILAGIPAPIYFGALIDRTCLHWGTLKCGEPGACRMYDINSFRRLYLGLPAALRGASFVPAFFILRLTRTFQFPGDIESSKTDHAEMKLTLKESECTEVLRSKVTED

[2] = target: T1, Solute carrier organic anion transporter family member 1A4; test: TP_TRANSPORTER: Northern blot in vivo SD rat, liver; format: functional, organism-based, Sprague-Dawley

Structure (SMILES)	Activity [1]	Activity [2]
Clc1cc2c(cc1Cl)Oc1cc(Cl)c(Cl)cc1O2 [2,3,7,8-TETRACHLORODIBENZO-P-DIOXIN]	inducer [Decrease]	
CC(=O)[C@H]1[C@H](C#N)C[C@H]2[C@@H]3CC=C4C[C@@H](O)CC[C@]4(C)[C@H]3CC[C@@]21C [PREGNENOLONE CARBONITRILE]	inducer [+]	inducer [+]
CC(=O)S[C@@H]1CC2=CC(=O)CC[C@]2(C)[C@H]2CC[C@@]3(C)[C@@H](CC[C@@]34CCC(=O)O4)[C@H]12 [SPIRONOLACTONE]	inducer [+]	
Clc1ccc(-c2cc(Cl)c(Cl)c(Cl)c2)cc1Cl [POLYCHLORINATED BIPHENYL 126]	inducer [Decrease]	
O=c1cc(-c2ccccc2)oc2ccc3ccccc3c12 [BETA-NAPHTHOFLAVONE]	inducer [Decrease]	
C=CCSCC=C [DIALLYL SULFIDE]	inducer [+]	inducer [+]
CCC1(c2ccccc2)C(=O)NC(=O)NC1=O [PHENOBARBITAL]	inducer [+]	
CCCC[C@@H](CC)COC(=O)c1ccccc1C(=O)OC[C@@H](CC)CCCC [BIS(2-ETHYLHEXYL)PHTHALATE]	inducer [+]	
C[C@@H]1C[C@H]2[C@@H]3CCC4=CC(=O)C=C[C@]4(C)[C@@]3(F)[C@@H](O)C[C@]2(C)[C@@]1(O)C(=O)CO [DEXAMETHASONE]	inducer [+]	
OCc1c[nH]c2ccccc12 [INDOLE-3-CARBINOL]	inducer [Decrease]	inducer [+]
Clc1ccc(-c2cc(Cl)c(Cl)cc2Cl)c(Cl)c1 [POLYCHLORINATED BIPHENYL 99]	inducer [+]	

Source: ChEMBL document CHEMBL2074300, “Induction profile of rat organic anion transporting polypeptide 2 (oatp2) by prototypical drug-metabolizing enzyme inducers that activate gene expression through ligand-activated transcription factor pathways” (J Pharmacol Exp Ther, 2002)
